Laboratory results reported in patent US9750698B2, “Controlled release compositions of agents that reduce circulating levels of platelets and methods therefor” (BioVascular, Inc., priority 2008, dated 2017).
Where two headings read alike, the source gives them in different places.

How the values were obtained:
[1] = Repeat-dose dose-escalation study of controlled release anagrelide: pharmacokinetics; format: in vivo, human; details: for half-life / AUC0-inf / AUC / Cmax / Tmax / AUC0-t: human, plasma, oral; for AUC0-inf / AUC / Cmax / AUC0-t: dose-normalized to 0.2 mg; for AUC0-inf: read-out: AUC0-inf; for AUC: read-out: AUC0-τ; for Cmax: read-out: Cmax; for Tmax: median; for AUC0-t: read-out: AUC0-t
Experimental: A placebo-controlled, double-blind repeat-dose, dose-escalation, sequential cohort study was conducted to evaluate the pharmacokinetics and pharmacodynamics of a controlled release composition of anagrelide as described herein in healthy subjects. An objective of the study was to explore the dose-response relationship for effects on platelet counts of a low dose range of a composition of anagrelide as described herein in healthy subjects. Other objectives of the study included determining the time course of effect and recovery of a range of doses of the composition including anagrelide on platelet count, determining the effects of a range of doses of the anagrelide compositions on platelet aggregation (collagen and ADP as agonists), determining the single and repeat dose pharmacokinetics of the anagrelide composition, and exploring the safety and tolerability of the compositions given as single doses and repeatedly for up to 21 days.
Eligible subjects were treated as follows: • Subjects were admitted to the unit on day 1 in the morning after an overnight fast and remain in the unit until 4 hours after morning dosing on day 5. • Subjects received a single dose of controlled release composition including anagrelide (or matching placebo) on day 1 in the morning. • Subjects commenced repeat dosing twice a day with the controlled release anagrelide composition on the morning of day 3 and remained in the unit until 4 hours after morning dose on day 5. • Subjects continued repeat twice a day dosing with the controlled release anagrelide composition as outpatients. Dosing continued until the morning of day 23. • All morning doses were taken after an overnight fast of at least 8 hour. • All evening doses were taken at least 2 hour after food consumption. No food was to be consumed for at least 1 hour after any dose (4 hours for the morning doses on day 1 and day 23). • On day 6-day 21, blood was taken pre-dosing of the controlled release anagrelide composition for full blood count (FBC) and platelet count (every day), trough PK (day 7, day 10, day 13, day 16 and day 19) and clinical chemistry (day 13). • Subjects were readmitted to the unit on the morning of day 22 and remained there until day 25 so that the PK of the final dose of the controlled release composition containing anagrelide on day 23 could be followed for 48 hours. • Subjects returned to the clinic daily from day 26 to day 31 for FBC and platelet counts. • Subjects returned for a follow up visit 14-16 days after the last dose of the controlled release composition containing anagrelide. Study Population:
A controlled release composition of anagrelide as described above in Table 4 of Example 1 (composition 2 fast release with seal coat) was used in unit doses of 100 μg and 300 μg, administered orally.
In this protocol, 4 cohorts of 200 μg, 300 μg, 400 μg and 600 μg doses of the controlled release composition including anagrelide administered twice daily were studied.
Platelet count, collagen-induced platelet aggregation, ADP induced platelet aggregation, template bleeding time, AUC0-t, AUC0-∞, Cmax, Cmin, t1/2, λZ and tmax were determined.
The starting dose of 200 μg (as a single dose on day 1 and then twice a day for 21 days) was chosen as a dose unlikely to cause any clinically significant reduction in platelet counts in healthy subjects. This starting dose was chosen because identification of the lowest dose of the controlled release composition containing anagrelide producing any effect on platelet counts was of interest. In each subsequent cohort the dose was increased by […] twice a day with the objective of identifying the dose range that lowers platelet counts by 30-50%. With daily monitoring of platelet counts, this escalation was determined to allow identification of the effective dose range of the controlled release composition of anagrelide without placing the subjects at significant clinical risk.

cultured megakaryocytes [2] = assay: In vitro studies of cultured megakaryocytes (TPO inhibition effects, megakaryocytopoiesis); format: cell-based; details: at 310.55 g/mol
[3] = 38 volunteers, single 1 mg dose of immediate release anagrelide (Agrylin); cited from earlier work
[4] = patients with ET or other myeloproliferative diseases; cited from earlier work
cAMP PDE = details: sonicated human platelets; read-out: IC50 for inhibition of cAMP PDE activity; cited from earlier work
cGMP PDE = details: sonicated human platelets; read-out: IC50 for inhibition of cGMP PDE activity; cited from earlier work
cultured megakaryocytes [5] = details: cultured megakaryocytes; cited from earlier work
[6] = cited from earlier work
CYP1A2 = CYP1A2 (Homo sapiens, UniProt P05177); details: cited from earlier work
Sequence of CYP1A2 (P05177 whole entry): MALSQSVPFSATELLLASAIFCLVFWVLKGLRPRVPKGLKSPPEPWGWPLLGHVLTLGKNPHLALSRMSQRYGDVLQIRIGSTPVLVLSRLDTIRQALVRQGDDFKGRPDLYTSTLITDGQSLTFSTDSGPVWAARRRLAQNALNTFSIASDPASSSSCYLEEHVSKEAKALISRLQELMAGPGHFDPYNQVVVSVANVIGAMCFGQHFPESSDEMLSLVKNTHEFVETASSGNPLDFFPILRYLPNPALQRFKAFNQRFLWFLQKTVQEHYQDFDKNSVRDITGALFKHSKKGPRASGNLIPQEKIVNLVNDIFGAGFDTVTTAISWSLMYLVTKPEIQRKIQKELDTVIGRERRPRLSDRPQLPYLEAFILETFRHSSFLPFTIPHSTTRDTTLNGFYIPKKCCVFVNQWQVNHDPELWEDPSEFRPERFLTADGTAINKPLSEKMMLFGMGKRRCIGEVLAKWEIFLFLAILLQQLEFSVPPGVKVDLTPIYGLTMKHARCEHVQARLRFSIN

[7] = cited from earlier work; remark: listed apart in the source
circulating platelets = details: patients with essential thrombocythemia, immediate release form 3 mg/day, after approximately 10 days; cited from earlier work
[8] = 0.2 mg, cohort 1 (0.2 mg), day 1
[9] = 0.2 mg, cohort 1 (0.2 mg), day 23
[10] = 0.3 mg, cohort 4 (0.3 mg), day 1
[11] = 0.3 mg, cohort 4 (0.3 mg), day 23
[12] = 0.4 mg, cohort 2 (0.4 mg), day 1
[13] = 0.4 mg, cohort 2 (0.4 mg), day 23
[14] = 0.6 mg, cohort 3 (0.6 mg), day 1
[15] = 14C labelled anagrelide in humans

Structure (SMILES): O=C1CN2Cc3c(ccc(Cl)c3Cl)N=C2N1 [anagrelide, 6,7-dichloro-1,5-dihydroimidazo-[2,1-b]quinazolin-2(3H)-one]
- Kel ([1]; cohort 1 (0.2 mg), day 1): 0.1908 h⁻¹
- Kel ([1]; cohort 1 (0.2 mg), day 23): 0.0871 h⁻¹
- Kel ([1]; cohort 2 (0.4 mg), day 1): 0.0426 h⁻¹
- Kel ([1]; cohort 2 (0.4 mg), day 23): 0.0567 h⁻¹
- Kel ([1]; cohort 3 (0.6 mg), day 1): 0.0490 h⁻¹
- Kel ([1]; cohort 4 (0.3 mg), day 1): 0.1685 h⁻¹
- Kel ([1]; cohort 4 (0.3 mg), day 23): 0.0321 h⁻¹
- half-life [1, 8]: 22.9 h
- half-life [1, 9]: 34.3 h
- AUC0-inf [1, 8]: 2.45 ng·h/mL
- AUC [1, 8]: 1.75 ng·h/mL
- Cmax [1, 8]: 0.334 ng/mL
- AUC0-inf [1, 9]: 3.25 ng·h/mL
- AUC [1, 9]: 2 ng·h/mL
- Cmax [1, 9]: 0.354 ng/mL
- Tmax [1, 8]: 4 h
- Tmax [1, 9]: 3 h
- half-life [1, 10]: 14.3 h
- half-life [1, 11]: 21.6 h
- AUC0-inf [1, 10]: 2.24 ng·h/mL
- AUC [1, 10]: 1.63 ng·h/mL
- Cmax [1, 10]: 0.284 ng/mL
- AUC0-inf [1, 11]: 2.1 ng·h/mL
- AUC [1, 11]: 1.87 ng·h/mL
- Cmax [1, 11]: 0.224 ng/mL
- Tmax [1, 10]: 3.61 h
- Tmax [1, 11]: 2 h
- half-life [1, 12]: 56.1 h
- half-life [1, 13]: 15.1 h
- AUC0-inf [1, 12]: 3.48 ng·h/mL
- AUC [1, 12]: 1.48 ng·h/mL
- Cmax [1, 12]: 0.234 ng/mL
- AUC0-inf [1, 13]: 3.28 ng·h/mL
- AUC [1, 13]: 2.26 ng·h/mL
- Cmax [1, 13]: 0.331 ng/mL
- Tmax [1, 12]: 3.51 h
- Tmax [1, 13]: 3.02 h
- half-life [1, 14]: 19.5 h
- AUC0-inf [1, 14]: 2.74 ng·h/mL
- AUC [1, 14]: 1.96 ng·h/mL
- Cmax [1, 14]: 0.304 ng/mL
- Tmax [1, 14]: 4 h
- AUC0-t ([1]; cohort 1 (0.2 mg), day 1): 1.72 ng·h/mL
- AUC0-t ([1]; cohort 2 (0.4 mg), day 1): 1.66 ng·h/mL
- AUC0-t ([1]; cohort 3 (0.6 mg), day 1): 2.26 ng·h/mL
- AUC0-t ([1]; cohort 4 (0.3 mg), day 1): 1.82 ng·h/mL
- Concentrations at which TPO inhibition effects are seen (molar equivalent) (cultured megakaryocytes [2]): 0.032 to 0.16 µM
- AUC0-inf ± RSD (%) [3]: 11.1 ± 37.6 ng·h/mL
- Cmax ± RSD (%) [3]: 4.99 ± 74.4 ng/mL
- Tmax ± RSD (%) [3]: 1.3 ± 53.8 h
- Observed half-life [4]: about 1.7 h
- Share of all drug-related products in the plasma [4]: less than 20%
- IC50 (cAMP PDE): 0.054 µM
- IC50 (cGMP PDE): 34 µM
- Concentrations at which TPO inhibition effects are seen (cultured megakaryocytes [5]): 0.01 to 5 µg/mL
- Eliminated via the kidneys [6, 15]: > 70%
- Excreted in the feces [6, 15]: approximately 10%
- Terminal half-life ([6]; commercially available instant release formulation): 1.7 h
- Drug-drug interactions with hydroxycarbamide or aspirin ([6]; in vivo): No drug-drug interactions were identified
- Absorption in the gastrointestinal tract ([6]; oral, marketed immediate release formulation): about 70%
- Level of CYP1A2 inhibition relative to therapeutic exposure (CYP1A2): about 900 fold
- Solubility in diethyl ether or n-heptane [7]: insoluble
- Solubility in dimethylsulfoxide and N,N-dimethylformamide [7]: sparingly soluble
- Solubility in water [7]: very slightly soluble
- Decrease in the number of circulating platelets (circulating platelets): 30-50%
